Like-named read-outs stand apart in the source and are kept apart here.

The test concerns the target ROCK2 (Homo sapiens (Human), UniProt O75116). Nature of the test: Rho-kinase inhibition ELISA (ROCK active-II, MYPT1 substrate). The conditions noted are these: classes given as pIC50, ATP 250 μM. It counts as biochemical. On the procedure: To measure Rho-kinase inhibition, IC50 values were determined according to the following ELISA protocol:
ROCK Substrate Coated Plate (Part No 241601): One strip well 96-well plate pre-coated with recombinant MYPT1.
Buffer: 25 mM Tris, pH 7.5, 10 mM MgCl2, 5 mM Glycerol-2-Phosphate, 0.1 mM Na3VO4; 1% DMSO; 2.5 mM DTT; (Enzyme: ROCK active-II) (Cell Biolabs, Catalog #STA-406, Part No. 241505) 0.1 ng/μl.
ATP Solution (Part No. 241604): 100 mM ATP. Final concentration of ATP in reaction mixture: 250 μM.
Secondary Antibody, HRP Conjugate (Part No. 231003).
Biotinylated substrate, diluted to 0.25 μM with buffer described above (without ATP).
1. Purified kinase or cell lysate sample can be used directly in the kinase assay or further diluted with 1× Kinase Buffer. Each sample should be assayed in duplicate.
2. Add 90 μL of the diluted active ROCK-II positive control or unknown ROCK samples to the wells of the substrate plate.
3. Initiate the kinase reaction by adding 10 μL of the 10× Kinase Reaction Buffer containing DTT and ATP. Mix well.
4. Cover with a plate cover and incubate the wells at 30° C. for 30-60 minutes with gentle agitation.
5. Stop kinase reaction by flicking out the content or by adding 50 μL of 0.5M EDTA, pH 8.0, to each well.
6. Remove the plate cover and empty wells. Wash microwell strips 3 times with 250 μL 1× Wash Buffer per well with thorough aspiration between each wash. After the last wash, empty wells and tap microwell strips on absorbent pad or paper towel to remove excess 1× Wash Buffer.
7. Add 100 μL of the diluted anti-phospho-MYPT1 (Thr696) antibody to each well.
8. Cover with the plate cover and incubate at room temperature for 1 hour on an orbital shaker.
9. Remove the plate cover and empty wells. Wash the strip wells 3 times according to step 6 above.
10. Add 100 μL of the diluted HRP-conjugated secondary antibody to each well.
11. Cover with the plate cover and incubate at room temperature for 1 hour on an orbital shaker.
12. Remove the plate cover and empty wells. Wash microwell strips 3 times according to step 6 above. Proceed immediately to the next step.
13. Warm Substrate Solution to room temperature. Add 100 μL of Substrate Solution to each well, including the blank wells. Incubate at room temperature for 5-20 minutes on an orbital shaker.
14. Stop the enzyme reaction by adding 100 μL of Stop Solution into each well, including the blank wells. Results should be read immediately (color will fade over time).
15. Read absorbance of each microwell on a spectrophotometer using 450 nm as the primary wave length.
The given activity (shown in Table 1 and Table 2) is denoted as the negative logarithm of the IC50 (pIC50) as follows: […]
In general terms: In an ELISA, binding on a coated surface is turned into a signal by an enzyme label.

ROCK2, sequence (O75116 whole entry, species assumed): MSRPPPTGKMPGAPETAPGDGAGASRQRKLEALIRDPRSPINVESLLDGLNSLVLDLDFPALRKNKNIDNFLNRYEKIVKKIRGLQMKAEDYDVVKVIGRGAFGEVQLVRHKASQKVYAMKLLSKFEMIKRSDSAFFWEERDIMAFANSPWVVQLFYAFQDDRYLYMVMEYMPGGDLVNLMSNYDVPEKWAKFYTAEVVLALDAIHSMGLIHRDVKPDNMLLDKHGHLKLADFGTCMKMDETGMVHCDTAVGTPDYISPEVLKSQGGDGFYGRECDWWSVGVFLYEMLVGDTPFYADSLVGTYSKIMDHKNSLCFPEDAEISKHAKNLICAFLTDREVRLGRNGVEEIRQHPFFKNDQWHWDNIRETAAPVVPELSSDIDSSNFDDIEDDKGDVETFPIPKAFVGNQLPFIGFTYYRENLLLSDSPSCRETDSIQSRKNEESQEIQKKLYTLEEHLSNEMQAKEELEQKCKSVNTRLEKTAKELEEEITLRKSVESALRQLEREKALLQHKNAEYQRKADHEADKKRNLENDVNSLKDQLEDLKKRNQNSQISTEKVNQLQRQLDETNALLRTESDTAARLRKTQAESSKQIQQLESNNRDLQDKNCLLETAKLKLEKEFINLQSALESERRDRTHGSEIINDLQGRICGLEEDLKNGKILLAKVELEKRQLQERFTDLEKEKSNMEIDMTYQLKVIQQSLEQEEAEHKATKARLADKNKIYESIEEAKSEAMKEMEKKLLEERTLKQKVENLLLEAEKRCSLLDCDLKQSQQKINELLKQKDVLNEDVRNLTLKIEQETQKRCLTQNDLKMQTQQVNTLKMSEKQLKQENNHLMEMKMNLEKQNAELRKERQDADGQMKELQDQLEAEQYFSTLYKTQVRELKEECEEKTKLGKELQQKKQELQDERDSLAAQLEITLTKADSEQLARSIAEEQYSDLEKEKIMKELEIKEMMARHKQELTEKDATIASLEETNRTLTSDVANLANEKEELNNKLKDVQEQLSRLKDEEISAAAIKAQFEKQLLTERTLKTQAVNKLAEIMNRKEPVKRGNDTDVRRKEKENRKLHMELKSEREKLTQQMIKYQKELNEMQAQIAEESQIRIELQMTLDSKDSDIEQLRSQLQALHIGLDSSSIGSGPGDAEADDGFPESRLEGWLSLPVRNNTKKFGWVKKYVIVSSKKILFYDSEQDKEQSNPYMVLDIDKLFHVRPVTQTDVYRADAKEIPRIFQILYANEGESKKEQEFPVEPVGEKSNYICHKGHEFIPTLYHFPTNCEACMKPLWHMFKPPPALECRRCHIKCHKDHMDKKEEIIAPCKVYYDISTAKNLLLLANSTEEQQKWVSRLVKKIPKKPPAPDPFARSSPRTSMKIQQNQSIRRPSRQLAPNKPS

A word on the IC50: it is the point on the concentration scale where inhibition reaches its midpoint. For `CN(C)CCN(Cc1ccc(Cl)cc1)C(=O)Nc1ccc2cnccc2c1` [compound 1], for the setting “Table 1, read-out: ROCK2 IC50”, the IC50 was 10 to 100 nM.
Consider `CN(C)CCN(Cc1ccc(F)cc1)C(=O)Nc1ccc2cnccc2c1` [compound 2], for which the IC50 (Table 1, read-out: ROCK2 IC50) is 10 to 100 nM.
On to `COc1cccc(CN(CCN(C)C)C(=O)Nc2ccc3cnccc3c2)c1` [compound 3], for which the IC50 (Table 1, read-out: ROCK2 IC50) lay within 100 to 1000 nM.
On to `COc1cccc(CN(CCO)C(=O)Nc2ccc3cnccc3c2)c1` [compound 4], for which, under “Table 1, read-out: ROCK2 IC50”, the IC50 was in the range of 100 to 1000 nM.
For `CN(C)CCN(Cc1ccccc1)C(=O)Nc1cccc2cnccc12` [compound 6], the IC50 (Table 2, read-out: ROCK IC50) lay within 100 to 1000 nM.
With `O=C(Nc1ccc2cnccc2c1)N[C@@H](CO)c1ccccc1` [compound 6], the IC50 (Table 1, read-out: ROCK2 IC50) lay in the range of 10 to 100 nM.
As to `CN(C)CCN(Cc1ccc(Cl)cc1)C(=O)Nc1cccc2cnccc12` [compound 7], the IC50 (Table 2, read-out: ROCK IC50) was 100 to 1000 nM.
On to `CN(C)CCN(Cc1cccc(F)c1)C(=O)Nc1ccc2cnccc2c1` [compound 8], for which, where the note is “Table 1, read-out: ROCK2 IC50”, the IC50 lay in the range of 100 to 1000 nM.
As to `NCCN(Cc1ccc(F)cc1)C(=O)Nc1ccc2cnccc2c1` [compound 8], the IC50 (Table 2, read-out: ROCK IC50) is 100 to 1000 nM.
In the case of `COC(=O)c1ccc(CN(CCN(C)C)C(=O)Nc2cccc3cnccc23)cc1` [compound 10], the “ROCK IC50” value (Table 2) was “+ (pIC50<6.0)”.
Take `CN(C)CCN(Cc1ccc(F)cc1)C(=S)Nc1cccc2cnccc12` [compound 11]: for the setting “Table 2, read-out: ROCK IC50”, the IC50 lay in the range of 100 to 1000 nM.
Regarding `CN(C)CCN(Cc1ccc(CO)cc1)C(=S)Nc1cccc2cnccc12` [compound 12], the “ROCK IC50” value (Table 2) is “+ (pIC50<6.0)”.
For the molecule `NCCN(Cc1ccc(O)cc1)C(=O)Nc1ccc2cnccc2c1` [compound 13], the “ROCK IC50” value (Table 2) was “+ (pIC50<6.0)”.
As for `NCCN(Cc1ccccc1)C(=O)Nc1ccc2cnccc2c1` [compound 14], under “Table 2, read-out: ROCK IC50”, the IC50 was in the range of 100 to 1000 nM.
For the molecule `NCCN(Cc1ccc(Br)cc1)C(=O)Nc1ccc2cnccc2c1` [compound 15], where the note is “Table 2, read-out: ROCK IC50”, the IC50 lay in the range of 100 to 1000 nM.
On to `NCCN(Cc1cccc(F)c1)C(=O)Nc1ccc2cnccc2c1` [compound 16], for which the IC50 (Table 2, read-out: ROCK IC50) is 100 to 1000 nM.
Turning to `CSc1ccc(CN(CCN)C(=O)Nc2ccc3cnccc3c2)cc1` [compound 17], for the setting “Table 2”, the “ROCK IC50” value was “+ (pIC50<6.0)”.
Same read-out and setting: for `COC(=O)c1ccc(CN(CCN)C(=O)Nc2ccc3cnccc3c2)cc1` [compound 18] the value was “+ (pIC50<6.0)”.
Turning to `NCCN(Cc1ccc(F)cc1)C(=S)Nc1ccc2cnccc2c1` [compound 19], the IC50 (Table 2, read-out: ROCK IC50) lay within 100 to 1000 nM.
Regarding `NCCN(Cc1ccc(F)cc1)C(=O)Nc1cccc2cnccc12` [compound 20], the “ROCK IC50” value (Table 2) is listed as “+ (pIC50<6.0)”.
Consider `CC(c1ccc(F)cc1)N(CCN)C(=O)Nc1ccc2cnccc2c1` (centres unmarked) [compound 22], for which the IC50 (Table 2, read-out: ROCK IC50) fell in the range of 100 to 1000 nM.
Same read-out and setting: for `CC(c1ccc(F)cc1)N(CCN)C(=O)Nc1ccc2cnccc2c1` (centres unmarked) [compound 23] the value was 10 to 100 nM.
Turning to `NCC(NC(=S)Nc1ccc2cnccc2c1)c1ccccc1` (centres unmarked) [compound 24], where the note is “Table 2”, the “ROCK IC50” value was “++++ (pIC50>8.0)”.
Turning to `NCC(NC(=O)Nc1ccc2cnccc2c1)c1ccc(F)cc1` (centres unmarked) [compound 25], the “ROCK IC50” value (Table 2) is listed as “++++ (pIC50>8.0)”.
`NCC(NC(=S)Nc1ccc2cnccc2c1)c1ccc(F)cc1` (centres unmarked) [compound 26]: the “ROCK IC50” value (Table 2) was “++++ (pIC50>8.0)”.
In the case of `NCCN(Cc1ccccc1)C(=S)Nc1ccc2cnccc2c1` [compound 27], the IC50 (Table 2, read-out: ROCK IC50) is 100 to 1000 nM.
Regarding `NCCN(Cc1cccc(F)c1)C(=S)Nc1ccc2cnccc2c1` [compound 28], the IC50 (Table 2, read-out: ROCK IC50) fell in the range of 100 to 1000 nM.
Consider `N#C/N=C(/Nc1ccc2cnccc2c1)N(CCN)Cc1cccc(F)c1` [compound 29], for which the IC50 (Table 2, read-out: ROCK IC50) was in the range of 10 to 100 nM.
On to `N#C/N=C(/Nc1ccc2cnccc2c1)N(CCN)Cc1ccc(F)cc1` [compound 30], for which the IC50 (Table 2, read-out: ROCK IC50) lay in the range of 10 to 100 nM.
For `NCCN(Cc1ccc(Cl)cc1)C(=S)Nc1ccc2cnccc2c1` [compound 31], the “ROCK IC50” value (Table 2) is “++++ (pIC50>8.0)”.
As for `Cc1ccc(CN(CCN)C(=S)Nc2ccc3cnccc3c2)cc1` [compound 32], the IC50 (Table 2, read-out: ROCK IC50) lay in the range of 100 to 1000 nM.
Regarding `NCCN(Cc1ccc(Cl)c(F)c1)C(=S)Nc1ccc2cnccc2c1` [compound 33], the IC50 (Table 2, read-out: ROCK IC50) lay in the range of 100 to 1000 nM.
Turning to `N#C/N=C(\Nc1ccc2cnccc2c1)N(CCN)Cc1ccc(Br)cc1` [compound 34], the IC50 (Table 2, read-out: ROCK IC50) fell in the range of 10 to 100 nM.
In the case of `COc1cccc(C(CN)NC(=S)Nc2ccc3cnccc3c2)c1` (centres unmarked) [compound 35], the “ROCK IC50” value (Table 2) is on record as “++++ (pIC50>8.0)”.
For `N#C/N=C(/Nc1ccc2cnccc2c1)N(CCN)Cc1ccccc1` [compound 36], for the setting “Table 2”, the “ROCK IC50” value was “++++ (pIC50>8.0)”.
On to `COc1ccc(CN(CCN)/C(=N\C#N)Nc2ccc3cnccc3c2)cc1` [compound 37], for which the “ROCK IC50” value (Table 2) is recorded as “++++ (pIC50>8.0)”.
For the molecule `NCCN(Cc1cccc(Cl)c1)C(=S)Nc1ccc2cnccc2c1` [compound 38], the IC50 (Table 2, read-out: ROCK IC50) fell in the range of 10 to 100 nM.
For `Cl.NCC(NC(=S)Nc1ccc2cnccc2c1)c1cccc2ccccc12` (centres unmarked) [compound 39], the “ROCK IC50” value (Table 2) is on record as “++++ (pIC50>8.0)”.

(Values after patent US10696638B2, “Compounds for inhibiting AGC kinase and pharmaceutical compositions comprising the same” (Industrial Technology Research Institute, priority 2017, dated 2020).)
